Reference: patent publication US20230146455A1, “TREATMENT OF INFLAMMATORY DISEASES WITH PEPTIDES AND PHARMACEUTICAL COMPOSITIONS” (Yuyu Pharma, Inc., priority 2020, published 2023)
Where a SMILES comes first, the peptide text is derived from it. [ ]: non-standard residue; d: D form. Hyp = O=C(O)[C@@H]1C[C@@H](O)CN1

Test: PBMC cell counts (total, live, viability; trypan blue, Countess) with and without LPS and test articles (Example 9)
Type: cell-based, human
Conditions: human; for viability at 24 h, 0.001 µM: PBMC + LPS(5 ug/ml) + compound 0.001 uM
Outline: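 Human PBMCs were pretreated 2 h with test articles (0.001–100 uM) or 0.5% DMSO vehicle, then given LPS at 5 ug/ml or no LPS, in triplicate. After 24 hr, total and live cells and viability were counted by 1:1 trypan blue staining on an automated counter.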

[1] = PBMCs, PBMC + LPS(5 ug/ml) + compound 0.01 uM, 24 hr
[2] = PBMCs, PBMC + LPS(5 ug/ml) + compound 0.1 uM, 24 hr
[3] = PBMCs, PBMC + LPS(5 ug/ml) + compound 1 uM, 24 hr
[4] = PBMCs, PBMC + LPS(5 ug/ml) + compound 10 uM, 24 hr
[5] = PBMCs, PBMC + LPS(5 ug/ml) + compound 100 uM, 24 hr

CC(C)C[C@H](NC(=O)CNC(=O)[C@H](CC(=O)O)NC(=O)[C@H](CCC(N)=O)NC(=O)CNC(=O)[C@@H]1C[C@@H](O)CN1)C(=O)N[C@@H](C)C(=O)NCC(=O)N1CCC[C@H]1C(=O)N[C@@H](CCCCN)C(=O)O [YY-101] (H-[Hyp]GQDGLAGPK-OH; N-terminus and C-terminus assumed)
viability at 24 h, 0.001 µM (PBMCs, 24 hr): 84.3 ± 2.6% | viability at 24 h, 0.01 µM [1]: 77.3 ± 5% | viability at 24 h, 0.1 µM [2]: 75.7 ± 4.7% | viability at 24 h, 1 µM [3]: 66.7 ± 5.8% | viability at 24 h, 10 µM [4]: 73.7 ± 4.8% | viability at 24 h, 100 µM [5]: 76.7 ± 5.2% | viability at 24 h, 0.01 µM (PBMCs, PBMC + compound 0.01 uM, no LPS, 24 hr): 85 ± 2% | viability at 24 h, 0.1 µM (PBMCs, PBMC + compound 0.1 uM, no LPS, 24 hr): 84% | viability at 24 h, 1 µM (PBMCs, PBMC + compound 1 uM, no LPS, 24 hr): 89.5 ± 2.5% | viability at 24 h, 10 µM (PBMCs, PBMC + compound 10 uM, no LPS, 24 hr): 86 ± 1% | viability at 24 h, 100 µM (PBMCs, PBMC + compound 100 uM, no LPS, 24 hr): 86.5 ± 1.5%

CC(C)C[C@H](NC(=O)CNC(=O)[C@H](CC(C)C)NC(=O)[C@H](CCC(N)=O)NC(=O)CNC(=O)[C@@H]1C[C@@H](O)CN1)C(=O)N[C@@H](C)C(=O)NCC(=O)N1CCC[C@H]1C(=O)N[C@@H](CCCCN)C(=O)O [YDE-011] (H-[Hyp]GQLGLAGPK-OH)
viability at 24 h, 0.001 µM (PBMCs, 24 hr): 85 ± 5.1% | viability at 24 h, 0.01 µM [1]: 81 ± 1.2% | viability at 24 h, 0.1 µM [2]: 82 ± 4% | viability at 24 h, 1 µM [3]: 79.7 ± 5.8% | viability at 24 h, 10 µM [4]: 88.3 ± 1.5% | viability at 24 h, 100 µM [5]: 74.3 ± 4.1% | viability at 24 h, 0.01 µM (human PBMCs, PBMC + LPS(5 ug/ml), test article 0.01 uM, single replicates): 83%

CC(C)C[C@H](NC(=O)[C@H](CCC(N)=O)NC(=O)CNC(=O)[C@@H]1C[C@@H](O)CN1)C(=O)NCC(=O)O [YDE-043] (H-[Hyp]GQLG-OH; N-terminus and C-terminus assumed)
viability at 24 h, 0.001 µM (PBMCs, 24 hr): 79.3 ± 1.5% | viability at 24 h, 0.01 µM [1]: 77.3 ± 6.9% | viability at 24 h, 0.1 µM [2]: 82 ± 4% | viability at 24 h, 1 µM [3]: 78 ± 5% | viability at 24 h, 10 µM [4]: 83.3 ± 3.3% | viability at 24 h, 100 µM [5]: 84.5 ± 4.5%
